The target in one test is Acetylcholinesterase (Electrophorus electricus, UniProt O42275). Briefly: Inhibition of electric eel AChE using acetylthiocholine chloride as substrate after 15 mins by Ellman's method.
Test [1] can be described thus: Inhibition of alpha glucosidase by UV-[…] spectroscopy. On the technique in general: CD spectra are sensitive to the conformation of chiral molecules.

Acetylcholinesterase, sequence (O42275 whole entry): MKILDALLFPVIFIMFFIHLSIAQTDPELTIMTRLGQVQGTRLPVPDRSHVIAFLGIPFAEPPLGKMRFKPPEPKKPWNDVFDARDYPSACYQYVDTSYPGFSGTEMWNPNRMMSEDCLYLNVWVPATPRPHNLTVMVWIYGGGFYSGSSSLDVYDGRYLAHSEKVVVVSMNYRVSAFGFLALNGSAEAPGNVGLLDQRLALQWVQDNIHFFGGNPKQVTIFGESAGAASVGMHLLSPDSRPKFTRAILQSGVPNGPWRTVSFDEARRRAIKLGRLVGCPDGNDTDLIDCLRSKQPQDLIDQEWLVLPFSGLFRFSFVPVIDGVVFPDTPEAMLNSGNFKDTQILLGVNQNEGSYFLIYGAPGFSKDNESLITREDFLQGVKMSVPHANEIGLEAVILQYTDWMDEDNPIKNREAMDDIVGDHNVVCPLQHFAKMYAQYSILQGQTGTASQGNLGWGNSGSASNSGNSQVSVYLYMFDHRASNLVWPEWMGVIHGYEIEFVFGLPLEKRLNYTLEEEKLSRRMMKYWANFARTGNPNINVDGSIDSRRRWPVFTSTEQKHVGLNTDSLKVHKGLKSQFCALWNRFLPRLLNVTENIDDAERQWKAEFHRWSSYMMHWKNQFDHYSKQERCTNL

By IC50 is commonly meant the point on the concentration scale where inhibition reaches its midpoint. A high value points to a need for much substance. `COc1c(-c2ccc(O)c(O)c2)cc(O)c(-c2ccc(O)c(O)c2)c1O`: the figures for the 50% inhibitory concentration (IC50) (on Acetylcholinesterase; in test [1]) were > 100 µM and 2.9 µM, respectively.

As to `COc1c(-c2ccc(O)cc2)cc(O)c(-c2ccc(O)cc2)c1O`, the values for the half-maximal inhibitory concentration (IC50) (against Acetylcholinesterase; in test [1]) were > 100 µM and 0.9 µM, respectively.

For the compound `CC[C@H](C)C(=O)[C@H]1C(=O)O[C@@]2(C)C(=O)C=C3C=C(C)O[C@H](O)[C@H]3[C@H]12` [CHERMESINONE C], the IC50 (against Acetylcholinesterase; in test [1]) was > 100 µM in each case.

Take `COc1c(-c2ccc(O)cc2)cc(O)c2c1oc1cc(O)c(O)cc12`: the IC50 against Acetylcholinesterase was 7.8 µM; in test [1], > 100 µM.

In the case of `COc1c(-c2ccc(O)cc2)cc(O)c(-c2ccc(O)c(O)c2)c1O`, the values for the IC50 (on Acetylcholinesterase; in test [1]) were > 100 µM and 4.9 µM, respectively.

As to `CC[C@H](C)C(=O)C[C@H]1C2=COC(C)=CC2=CC(=O)[C@]1(C)O` [CHERMESINONE A], the IC50 against Acetylcholinesterase was > 100 µM; in test [1], 24.5 µM.

Take `CC[C@H](C)C(=O)[C@H]1C(=O)O[C@@]2(C)C(=O)C=C3C=C(C)OC=C3[C@H]12` [CHERMESINONE B]: the 50% inhibitory concentration (IC50) (against Acetylcholinesterase; in test [1]) was > 100 µM throughout.

For the compound `O=c1c(-c2ccc(O)cc2)coc2cc(O)cc(O)c12` [GENISTEIN], in test [1], the IC50 was found to be 9.8 µM.

For the compound `COc1c(-c2ccc(O)c(O)c2)cc(O)c2c1oc1cc(O)c(O)cc12` [6'-DESMETHYLCANDIDUSIN B], the figures for the IC50 (against Acetylcholinesterase; in test [1]) were 5.2 µM and > 100 µM, respectively.

The values are drawn from ChEMBL document CHEMBL1800006, “Azaphilones and p-terphenyls from the mangrove endophytic fungus Penicillium chermesinum (ZH4-E2) isolated from the South China Sea” (J Nat Prod, 2011).
